Results: patent publication US20050170015A1 (priority 2000, published 2005)
Read-outs that look alike come from different tables or passages of the source.

Experiments:
[1] = test system: RIF-1 murine fibrosarcoma; assay: RIF-1 tumor growth delay, thiocolchicine alone and with cisplatin, camptothecin or amonafide (Example 6); assay type: in vivo, C3H mice; settings: Ex# E047
Protocol: Cisplatin for Injection, USP, was obtained as the commercial product from Bristol Laboratories (Platinol®, Lot No. K1F26A). Camptothecin was obtained from Boehinger-Ingelheim Lot 142088. Amonafide dihydrochloride was prepared in house, in a solution of 20 mg/ml. 0.9% Sodium Chloride for Injection, USP (saline) was manufactured by Abbott Laboratories (Lot No. 55-199-DK). Sterile Water for Injection, USP (WFI) was manufactured by Lyphomed, Inc. (Lot No. 390849). DMSO was obtained from Sigma (St. Louis, Mo.). DMF (dimethylformamide) was obtained from Sigma (St. Louis, Mo.). PEG400 was obtained from Sigma (St. Louis, Mo.).
For preparation of cisplatin formulation, the contents of a 10-mg vial of lyophilized CDDP (Cisplatin for Injection) was resuspended with 10 mL WFI to produce a 1 mg/mL CDDP suspension.
Camptothecin was prepared in a solution of DMSO at 0.75 mg/ml.
This was further diluted using saline to […].
Amonafide was diluted to 15 mg/ml with saline.
Food and water were available ad libitum.
Tumors: The RIF-1 murine fibrosarcoma cell line was maintained in in vitro culture (Wayrnouth medium supplemented with 20% fetal bovine serum) at 37° C. in a humidified 5% CO2 incubator. Log-phase RIF-1 cells were trypsinized and harvested from cell culture flasks to yield a concentration of 4×10^6 cells/mL, then injected intradermally in a volume of 50 μL (equivalent to 2×10^5 cells per injection) into both flanks of each mouse. Nine days later, when tumors reached approximately 100 mm^3 in size, the animals were randomized to different treatment groups.
Evaluation of Tumor Growth Delay: Tumors were measured three times weekly for up to 22 days with Vernier calipers. Tumor volume (cubic millimeters, mm^3) was calculated according to the formula: [formula] in which D1-3 are perpendicular diameters measured in millimeters (mm). Tumor volume quadrupling time (TVQT), defined as the time required for a tumor to grow to four times (4×) its initial volume (at the time of treatment), was used as a study endpoint.
The TVQT was determined for each treatment group and expressed in days as the mean±standard error (SE).

[2] = test system: murine fibrosarcomas (RIF-1 cells); assay: RIF-1 tumor growth delay, single or multiple colchicine doses in mixed sequence with camptothecin (Example 2B); assay type: in vivo, C3H mice
Protocol: (§1) For the examples below, transplantable experimental murine fibrosarcomas (2×10^5 RIF-1 cells) were grown intradermally in the flank s of 3 month old female C3H mice (Charles River, Holister, Calif.). When the tumors reached a volume of approximately 100 mm^3, the mice were randomly assigned to each experimental group (4 mice per group).
(§2) Colchicine was obtained from Sigma-Aldrich (St. Louis, Mo.) and was made to the appropriate concentration in water for injection. After the treatments described below, the growth of the tumors was monitored three times per week by caliper measurements of three perpendicular diameters of the tumor. The tumor volume was calculated from the formula: V=π/6×D1×D2×D3, where D1-3 are the diameter measurements in mm.
(§3) In each Example, the tumors were followed until they reached a size of four times their day zero treatment volume (TVQT), or up to 30 days after treatment, whichever came first. The data is expressed as the “tumor volume quadrupling time” (TVQT) mean and as the “delay.” Mean TVQT is the mean days required for individual tumors to grow to four times the tumor volume at the initial treatment day. The “delay” is the median of days required for a tumor to grow to four times the mean size of the treated group, minus the median of days required to grow to four times the mean size of the control group. The data is also expressed as the ratio of the tumor volume quadrupling time of the treated tumor over the untreated control group (TVQT/CTVQT). Increasing values of this ratio indicate increased antitumor response.
In FIG. 5, the arrow indicates a one hour interval separating treatment with each agent. The experimental compositions were prepared as described above. In two treatment groups, colchicine was administered orally in three doses (“colch×3” or “colchicine×3”). When three dosages of colchicine were administered, the first was given one hour after the administration of camptothecin (day 0), the second on day 1 and the third on day 2.

[3] = test system: murine fibrosarcomas (RIF-1 cells); assay: RIF-1 tumor growth delay, single-dose colchicine with camptothecin (Example 2A); assay type: in vivo, C3H mice
Protocol: as §1, §2, §3
A. Effect of Single Doses of Colchicine Administered Concurrently with Camptothecin Camptothecin (Boehringer Ingelheim-Lot 71012) was made to the appropriate concentration in DMSO. Colchicine was given orally in a volume of 100 μl. Camptothecin was injected systemically (i.e., intraperitoneally, i.p.), in a volume of 100 μl. For the treatment of group 3, colchicine was given orally immediately prior to the intraperitoneal injection of camptothecin. The experimental compositions were prepared as described in Table 4.

[4] = test system: murine fibrosarcomas (RIF-1 cells); assay type: in vivo, C3H mice
Protocol: as §1, §2, §3
Paclitaxel was obtained prediluted at 1 mg/ml in a cremaphor/ethanol solution. Colchicine was given at a dose of 2 mg/kg and paclitaxel was given, for each injection, at a dose of 10 mg/kg. For group 4, a total of three paclitaxel injections were given, one each on days 0, 3 and 5. The compositions were injected systemically (i.e., intraperitoneally, i.p.), in a volume of 100 μl.

[5] = test system: murine fibrosarcomas (RIF-1 cells); assay type: in vivo, C3H mice; remark: listed apart in the source
Protocol: as §1, §2, §3
Etoposide (Sigma-Aldrich, lot. 46H078) was made to the appropriate concentration in DMSO. Etoposide and colchicine were injected systemically (i.e., intraperitoneally, i.p.), in a volume of 100 μl. The experimental compositions were prepared as described in Table 2.

[6] = test system: murine fibrosarcomas (RIF-1 cells)
Text: In each Example, the tumors were followed until they reached a size of four times their day zero treatment volume (TVQT), or up to 30 days after treatment, whichever came first. The data is expressed as the “tumor volume quadrupling time” (TVQT) mean and as the “delay.” Mean TVQT is the mean days required for individual tumors to grow to four times the tumor volume at the initial treatment day. […] The data is also expressed as the ratio of the tumor volume quadrupling time of the treated tumor over the untreated control group (TVQT/CTVQT). Increasing values of this ratio indicate increased antitumor response.

[7] = test system: murine fibrosarcomas (RIF-1 cells); assay type: in vivo, C3H mice; remark: listed apart in the source
Protocol: as §1, §2, §3
Cisplatin (David Bull Laboratories—Mulgrave, Australia, lot. 5201844x) was made to the appropriate concentration in water for injection. Colchicine was given orally in a volume of 100 μl. Cisplatin was injected systemically (i.e., intraperitoneally, i.p.), in a volume of 100 μl. For the treatment of group 3, colchicine was given orally immediately prior to the intraperitoneal injection of cisplatin. The experimental compositions were prepared as described in Table 7.

[8] = paclitaxel 10 mg/kg i.p., 3× (days 0, 3, 5)
[9] = paclitaxel 10 mg/kg i.p., given once
[10] = vinblastine 1 mg/kg i.p., 3× (days 0, 3, 6)
[11] = vinblastine 1 mg/kg i.p., 4× (days 0, 3, 6, 8)
[12] = colchicine 2 mg/kg i.p. (Table 11: 1 mg/kg)
[13] = colchicine 10 mg/kg oral × 3 (days 0, 1, 2)
[14] = colchicine 10 mg/kg oral, single dose

SMILES: CN(C)CCN1C(=O)c2cccc3cc(N)cc(c23)C1=O [Amonafide]
- Days to 4× (ave ± SE) ([1]; amonafide IP 60 mg/kg): 9.8 ± 0.6 days
- Days to 4× Median ([1]; amonafide IP 60 mg/kg): 10.1 days
- Delay ([1]; amonafide IP 60 mg/kg): 2.55 days
- T/C ([1]; amonafide IP 60 mg/kg): 1.3

SMILES: CC[C@@]1(O)C(=O)OCc2c1cc1n(c2=O)Cc2cc3ccccc3nc2-1 [Camptothecin, camptothecin]
- Days to 4× (ave ± SE) ([1]; camptothecin IP 3 mg/kg): 8.26 ± 0.46 days
- Days to 4× Median ([1]; camptothecin IP 3 mg/kg): 8.27 days
- Delay ([1]; camptothecin IP 3 mg/kg): 0.71 days
- T/C ([1]; camptothecin IP 3 mg/kg): 1.1
- Days to 4× (Ave ± SE) ([2]; CPT 6 mg/kg IP): 12.9 ± 0.5 days
- Delay ([2]; CPT 6 mg/kg IP): 5.45 days
- Median ([2]; CPT 6 mg/kg IP): 12.8 days
- T/C ([2]; CPT 6 mg/kg IP): 1.7
- Delay ([3]; camptothecin 6 mg/kg i.p.): 3.60 days
- Mean TVQT ± S.E. ([3]; camptothecin 6 mg/kg i.p.): 9.4 ± 0.5 days
- Median (TVQT) ([3]; camptothecin 6 mg/kg i.p.): 9.9 days
- TVQT/CTVQT ([3]; camptothecin 6 mg/kg i.p.): 1.5

SMILES: CC(=O)O[C@H]1C(=O)[C@@]2(C)[C@H]([C@H](OC(=O)c3ccccc3)[C@]3(O)C[C@H](OC(=O)[C@H](O)[C@@H](NC(=O)c4ccccc4)c4ccccc4)C(C)=C1C3(C)C)[C@]1(OC(C)=O)CO[C@@H]1C[C@@H]2O [Paclitaxel]
- Effectiveness of paclitaxel given 3 times versus once ([4]; RIF-1 model, paclitaxel 10 mg/kg i.p.): slightly more effective
- Delay [4, 8]: 1.59 days
- Mean TVQT ± S.E. [4, 8]: 10.8 ± 1.9 days
- Median (TVQT) [4, 8]: 9.0 days
- TVQT/CTVQT [4, 8]: 1.4
- Delay [4, 9]: 0.67 days
- Mean TVQT ± S.E. [4, 9]: 9.1 ± 0.7 days
- Median (TVQT) [4, 9]: 8.1 days
- TVQT/CTVQT [4, 9]: 1.2

SMILES: COc1cc([C@@H]2c3cc4c(cc3[C@@H](O[C@@H]3O[C@@H]5CO[C@@H](C)O[C@H]5[C@H](O)[C@H]3O)[C@H]3COC(=O)[C@H]23)OCO4)cc(OC)c1O [Etoposide]
- Delay ([5]; etoposide 10 mg/kg i.p.): -0.17 days
- Mean TVQT ± S.E. ([5]; etoposide 10 mg/kg i.p.): 7.7 ± 0.5 days
- Median (TVQT) ([5]; etoposide 10 mg/kg i.p.): 7.5 days
- TVQT/CTVQT ([5]; etoposide 10 mg/kg i.p.): 1.0

SMILES: CC[C@]1(O)C[C@@H]2CN(CCc3c([nH]c4ccccc34)[C@@](C(=O)OC)(c3cc4c(cc3OC)N(C)[C@H]3[C@@](O)(C(=O)OC)[C@H](OC(C)=O)[C@]5(CC)C=CCN6CC[C@]43[C@@H]65)C2)C1 [Vinblastine]
- Tumor growth delay curve when vinblastine was given after colchicine ([6]; group 7: vinblastine days 0, 3, colchicine day 6, vinblastine day 8): renewed sensitivity to vinblastine
- Delay ([6]; vinblastine 1 mg/kg i.p., 1×): 0.11 days
- Mean TVQT ± S.E. ([6]; vinblastine 1 mg/kg i.p., 1×): 6.6 ± 0.4 days
- Median (TVQT) ([6]; vinblastine 1 mg/kg i.p., 1×): 6.2 days
- TVQT/CTVQT ([6]; vinblastine 1 mg/kg i.p., 1×): 1.0
- Mean TVQT ± S.E. [6, 10]: 8.9 ± 0.9 days
- Median (TVQT) [6, 10]: 7.8 days
- TVQT/CTVQT [6, 10]: 1.4
- Mean TVQT ± S.E. [6, 11]: 8.4 ± .06 days
- Median (TVQT) [6, 11]: 8.6 days
- TVQT/CTVQT [6, 11]: 1.2

SMILES: COc1cc2c(c(OC)c1OC)-c1ccc(OC)c(=O)cc1[C@@H](NC(C)=O)CC2 [Colchicine, (S)-N-(5,6,7,9-tetrahydro-1,2,3,10-tetramethoxy-9-oxobenzo[a]heptalen-7-yl)acetamide]
- Effect of colchicine on the antiproliferative activity of etoposide ([5]; both compounds (group 4) versus etoposide alone or colchicine alone): more than additive effect
- Delay ([5]; colchicine 2 mg/kg i.p.): 1.65 days
- Mean TVQT ± S.E. ([5]; colchicine 2 mg/kg i.p.): 9.5 ± 0.2 days
- Median (TVQT) ([5]; colchicine 2 mg/kg i.p.): 9.3 days
- TVQT/CTVQT ([5]; colchicine 2 mg/kg i.p.): 1.2
- Delay [4, 12]: 3.34 days
- Mean TVQT ± S.E. [4, 12]: 11.3 ± 0.6 days
- Median (TVQT) [4, 12]: 10.8 days
- TVQT/CTVQT [4, 12]: 1.5
- Days to 4× (Ave ± SE) [2, 13]: 7.2 ± 0.3 days
- Delay [2, 13]: -0.04 days
- Median [2, 13]: 7.3 days
- T/C [2, 13]: 1.0
- Tumor growth delay, three doses of colchicine compared to a single dose ([2]; colchicine 10 mg/kg oral × 3 versus single dose): did not delay tumor growth significantly
- Days to 4× (Ave ± SE) [2, 14]: 7.7 ± 0.4 days
- Delay [2, 14]: 0.32 days
- Median [2, 14]: 7.6 days
- T/C [2, 14]: 1.0
- Effect of colchicine on the antiproliferative activity of camptothecin ([3]; both compounds (group 4) versus camptothecin alone or colchicine alone): more than additive effect
- Delay ([3]; colchicine 10 mg/kg oral): 0.02 days
- Mean TVQT ± S.E. ([3]; colchicine 10 mg/kg oral): 6.4 ± 0.3 days
- Median (TVQT) ([3]; colchicine 10 mg/kg oral): 6.3 days
- TVQT/CTVQT ([3]; colchicine 10 mg/kg oral): 1.0
- Effect of colchicine on the antiproliferative activity of cisplatin ([7]; both compounds (group 4) versus cisplatin alone or colchicine alone): more than additive effect
- Delay ([7]; colchicine 10 mg/kg oral): 0.02 days
- Median (TGD) ([7]; colchicine 10 mg/kg oral): 6.3 days
- TGD ± S.E. ([7]; colchicine 10 mg/kg oral): 6.4 ± 0.3 days
- TGD/CTGD ([7]; colchicine 10 mg/kg oral): 1.0
- Delay ([6]; colchicine 1 mg/kg i.p.): 1.15 days
- Mean TVQT ± S.E. ([6]; colchicine 1 mg/kg i.p.): 7.2 ± 0.5 days
- Median (TVQT) ([6]; colchicine 1 mg/kg i.p.): 7.2 days
- TVQT/CTVQT ([6]; colchicine 1 mg/kg i.p.): 1.1

SMILES: N.N.[Cl][Pt][Cl] [Cisplatin, cis-diamminedichloroplatinum II]
- Days to 4× (ave ± SE) ([1]; CDDP IP 4 mg/kg): 9.44 ± 0.42 days
- Days to 4× Median ([1]; CDDP IP 4 mg/kg): 9.22 days
- Delay ([1]; CDDP IP 4 mg/kg): 1.66 days
- T/C ([1]; CDDP IP 4 mg/kg): 1.2
- Delay ([7]; cisplatin 4 mg/kg i.p.): 1.45 days
- Median (TGD) ([7]; cisplatin 4 mg/kg i.p.): 7.7 days
- TGD ± S.E. ([7]; cisplatin 4 mg/kg i.p.): 7.4 ± 0.3 days
- TGD/CTGD ([7]; cisplatin 4 mg/kg i.p.): 1.2
